Data: patent US12201640B2, “19-nor C3,3-disubstituted C21-n-pyrazolyl steroids and methods of use thereof” (Sage Therapeutics, Inc., priority 2013, dated 2025)

Columns and labels:
[1] = system: male Sprague Dawley rats; test: Loss of righting reflex in rats; type: in vivo; conditions: Rat IV, 5 mpk
Description: Loss of Righting Reflex in Rats
The plasma pharmacokinetics and a qualitative assessment of sedation were obtained in male
Sprague Dawley rats according to the following procedure. Rats were dosed by intravenous bolus dose (60 seconds) via the foot dorsal vein at doses ranging from 5 to 15 mg/kg in an appropriate vehicle. In order to assess sedation, rats were gently restrained by hand to a lateral position for dose administration. […] If the animal was unable to return to an upright position, the time was recorded as the onset of loss of righting reflex (LRR). […] Sluggish or incomplete righting twice consecutively within a 30 second interval qualifies as a loss of righting reflex. After onset of LRR, animals were assessed every 5 minutes in the same manner. Recovery of righting reflex is defined as the ability of a rat to right itself completely within 20 seconds of being placed in dorsal recumbency. The duration of LRR is defined as the time interval between LRR and the return of righting reflex.

[2] = system: PTZ-treated mice; test: Acute PTZ (pentylenetetrazol-induced seizure) assay in mice; type: in vivo, mouse; conditions: latency to tonic seizures
Description: The anticonvulsant effect of test compounds were assessed in the pentylenetetazol-induced seizure assay in mice similar to methods described in Giardina & Gasior (2009) Curr Protoc Pharmacol., Chapter 5. Male CD-1 mice were housed in groups of five under controlled conditions (temperature of 22±2° C. and 12:12 light-dark cycle, lights on at 8:00 am) and water and food were available ad libitum. The mice were housed for 1 week prior to behavioral testing, at which time they weighed 25-35 g. Pentylenetetrazol (PTZ, Sigma) was dissolved in sterile 0.9% saline at a concentration of 12 mg/mL concentration for subcutaneous administration. Test compounds were formulated and administered via oral gavage or intraperitoneal injection at a predetermined time-point (typically 30 or 60 minutes) prior to PTZ injection. All solutions were made fresh and were given in a volume of 10 ml/kg body weight.
Mice were acclimated to the test room for at least 30 min before compound administration. Mice were randomized into at least four test groups (vehicle and at least three doses of the test compound) with 10 mice per group. […] Following the drug pretreatment time the mice were injected s.c. with PTZ (120 mg/kg). Immediately following the PTZ injection, mice were individually placed into observation chambers (25×15×15 cm) and a three-channel timer was started. Each mouse was continuously observed for 30 min and the following behaviors were recorded by observers blinded to the treatments: 1) latency to clonic convulsions that persist for 3 sec and followed by an absence of righting reflex 2) latency to tonic convulsions, characterized by the rigid extension of all four limbs that exceeded a 90 degree angle with the body 3) latency to death 4) number of clonic and tonic convulsions. Data are presented as mean±S.E.M and one-way analysis of variance with Dunnett's or Bonferroni's post-hoc test was used to detect significant differences in latency and number between the vehicle and dose group. p values<0.05 were regarded as statistically significant.

Structure (SMILES) | Duration of Rat LRR [1] | Anticonvulsive Effect Dose (minimal effective anticonvulsant dose) ([2]; PO) | Anticonvulsive Effect Dose (minimal effective anticonvulsant dose) ([2]; IP)
C[C@@]1(O)CC[C@H]2[C@H](CC[C@@H]3[C@@H]2CC[C@]2(C)[C@@H](C(=O)Cn4cc(C#N)cn4)CC[C@@H]32)C1 [SA-4] | C (>60 min) | A (PO) (<3 mpk) | 
Cc1cnn(CC(=O)[C@H]2CC[C@H]3[C@@H]4CC[C@@H]5C[C@](C)(O)CC[C@@H]5[C@H]4CC[C@]23C)c1 [SA-6] | A (<15 min) |  | 
C[C@@]1(O)CC[C@H]2[C@H](CC[C@@H]3[C@@H]2CC[C@]2(C)[C@@H](C(=O)Cn4cccn4)CC[C@@H]32)C1 [SA-13] |  |  | B (IP) (≥3 mpk)
